Results published in the supplement of paper PMC10307832.

Tests used:
Experiment in all cases: relative viability (nuclei count vs DMSO), 5 days (fraction); higher = more cells survive
NCI-H2170 = tested on: NCI-H2170
In short: (§1)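 Lung cancer cell lines in 1536-well plates were dosed by pin tool the day after seeding, either with one drug alone or with a fixed anchor-drug dose plus five library-drug doses (not always all listed) in √10 steps. After 5 days, cells were fixed and their nuclei stained in one step (final 0.05% Triton X-100, 1% formaldehyde, 1 ug/ml Hoechst), then counted on 4× images. Relative viability is the nuclei count in treated wells divided by that in vehicle wells. Values are medians of duplicate plates.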

NCI-H460 = tested on: NCI-H460
In short: as §1

HCC-366 = tested on: HCC-366
In short: as §1

HCC-78 = tested on: HCC-78
In short: as §1

COR-L 105 = tested on: COR-L 105
In short: as §1

NCI-H1944 = tested on: NCI-H1944
In short: as §1

LCLC-97TM1 = tested on: LCLC-97TM1
In short: as §1

UMC-11 = tested on: UMC-11
In short: as §1

NCI-H1975 = tested on: NCI-H1975
In short: as §1

A-427 = tested on: A-427
In short: as §1

SK-LU-1 = tested on: SK-LU-1
In short: as §1

EPLC-272H = tested on: EPLC-272H
In short: as §1

NCI-H1792 = tested on: NCI-H1792
In short: as §1

NCI-H358 = tested on: NCI-H358
In short: as §1

SW 900 = tested on: SW 900
In short: as §1

NCI-H2085 = tested on: NCI-H2085
In short: as §1

HOP-62 = tested on: HOP-62
In short: as §1

LC-2-ad = tested on: LC-2-ad
In short: as §1

LU99A = tested on: LU99A
In short: as §1

LXF-289 = tested on: LXF-289
In short: as §1

NCI-H2342 = tested on: NCI-H2342
In short: as §1

NCI-H1755 = tested on: NCI-H1755
In short: as §1

NCI-H1915 = tested on: NCI-H1915
In short: as §1

NCI-H1793 = tested on: NCI-H1793
In short: as §1

CC(C)Oc1cc(Nc2nc(N[C@@H](C)c3ccc(F)cn3)ncc2Cl)n[nH]1 [AZ23] + N=C(N)NC(=N)NCCc1ccccc1 [Phenformin] (partner 250 µM)
relative viability (NCI-H2170; first compound 0.01 µM): 0.463
relative viability (NCI-H2170; first compound 0.03162 µM): 0.424
relative viability (NCI-H2170; first compound 0.3162 µM): 0.489
relative viability (NCI-H460; first compound 0.01 µM): 0.335
relative viability (NCI-H460; first compound 0.03162 µM): 0.601
relative viability (NCI-H460; first compound 0.3162 µM): 0.549
relative viability (HCC-366; first compound 0.01 µM): 0.614
relative viability (HCC-366; first compound 0.03162 µM): 0.641
relative viability (HCC-366; first compound 0.3162 µM): 0.658
relative viability (HCC-78; first compound 0.01 µM): 0.692
relative viability (HCC-78; first compound 0.03162 µM): 0.656
relative viability (HCC-78; first compound 0.3162 µM): 0.583
relative viability (COR-L 105; first compound 0.01 µM): 0.456
relative viability (COR-L 105; first compound 0.03162 µM): 0.577
relative viability (COR-L 105; first compound 0.3162 µM): 0.508
relative viability (NCI-H1944; first compound 0.01 µM): 0.197
relative viability (NCI-H1944; first compound 0.03162 µM): 0.225
relative viability (NCI-H1944; first compound 0.3162 µM): 0.219
relative viability (LCLC-97TM1; first compound 0.01 µM): 0.502
relative viability (LCLC-97TM1; first compound 0.03162 µM): 0.485
relative viability (LCLC-97TM1; first compound 0.3162 µM): 0.417
relative viability (UMC-11; first compound 0.01 µM): 0.341
relative viability (UMC-11; first compound 0.03162 µM): 0.305
relative viability (UMC-11; first compound 0.3162 µM): 0.324
relative viability (NCI-H1975; first compound 0.01 µM): 0.43
relative viability (NCI-H1975; first compound 0.03162 µM): 0.416
relative viability (NCI-H1975; first compound 0.3162 µM): 0.397
relative viability (A-427; first compound 0.01 µM): 0.301
relative viability (A-427; first compound 0.03162 µM): 0.365
relative viability (A-427; first compound 0.3162 µM): 0.281
relative viability (SK-LU-1; first compound 0.03162 µM): 0.586
relative viability (SK-LU-1; first compound 0.3162 µM): 0.517
relative viability (EPLC-272H; first compound 0.01 µM): 0.33
relative viability (EPLC-272H; first compound 0.03162 µM): 0.302
relative viability (EPLC-272H; first compound 0.3162 µM): 0.378
relative viability (NCI-H1792; first compound 0.03162 µM): 0.397
relative viability (NCI-H1792; first compound 0.3162 µM): 0.239
relative viability (NCI-H358; first compound 0.01 µM): 0.369
relative viability (NCI-H358; first compound 0.03162 µM): 0.347
relative viability (NCI-H358; first compound 0.3162 µM): 0.348
relative viability (SW 900; first compound 0.01 µM): 0.734
relative viability (SW 900; first compound 0.03162 µM): 0.879
relative viability (SW 900; first compound 0.3162 µM): 0.799
relative viability (NCI-H2085; first compound 0.01 µM): 0.727
relative viability (NCI-H2085; first compound 0.03162 µM): 0.705
relative viability (NCI-H2085; first compound 0.3162 µM): 0.779
relative viability (HOP-62; first compound 0.01 µM): 0.684
relative viability (HOP-62; first compound 0.03162 µM): 0.792
relative viability (HOP-62; first compound 0.3162 µM): 0.79
relative viability (LC-2-ad; first compound 0.01 µM): 0.544
relative viability (LC-2-ad; first compound 0.03162 µM): 0.611
relative viability (LC-2-ad; first compound 0.3162 µM): 0.528
relative viability (LU99A; first compound 0.01 µM): 0.912
relative viability (LU99A; first compound 0.03162 µM): 0.976
relative viability (LU99A; first compound 0.3162 µM): 0.882
relative viability (LXF-289; first compound 0.01 µM): 0.591
relative viability (LXF-289; first compound 0.03162 µM): 0.512
relative viability (LXF-289; first compound 0.3162 µM): 0.533
relative viability (NCI-H2342; first compound 0.01 µM): 0.683
relative viability (NCI-H2342; first compound 0.03162 µM): 0.634
relative viability (NCI-H2342; first compound 0.3162 µM): 0.564
relative viability (NCI-H1755; first compound 0.01 µM): 0.689
relative viability (NCI-H1755; first compound 0.03162 µM): 0.651
relative viability (NCI-H1755; first compound 0.3162 µM): 0.673
relative viability (NCI-H1915; first compound 0.01 µM): 0.4
relative viability (NCI-H1915; first compound 0.03162 µM): 0.373
relative viability (NCI-H1915; first compound 0.3162 µM): 0.372
relative viability (NCI-H1793; first compound 0.01 µM): 0.366
relative viability (NCI-H1793; first compound 0.03162 µM): 0.439
relative viability (NCI-H1793; first compound 0.3162 µM): 0.45

C[C@@H]1CN(CC(=O)Nc2ccc3c(c2)Cc2cccc(-c4cc(=O)cc(N5CCOCC5)o4)c2S3)C[C@H](C)O1 + N=C(N)NC(=N)NCCc1ccccc1 [Phenformin] (partner 250 µM)
relative viability (NCI-H2170; first compound 0.04 µM): 0.406
relative viability (NCI-H2170; first compound 0.1265 µM): 0.43
relative viability (NCI-H2170; first compound 0.4 µM): 0.44
relative viability (NCI-H2170; first compound 4 µM): 0.412
relative viability (NCI-H460; first compound 0.04 µM): 0.566
relative viability (NCI-H460; first compound 0.1265 µM): 0.488
relative viability (NCI-H460; first compound 0.4 µM): 0.605
relative viability (NCI-H460; first compound 4 µM): 0.392
relative viability (HCC-366; first compound 0.04 µM): 0.659
relative viability (HCC-366; first compound 0.1265 µM): 0.656
relative viability (HCC-366; first compound 0.4 µM): 0.634
relative viability (HCC-366; first compound 4 µM): 0.681
relative viability (HCC-78; first compound 0.04 µM): 0.656
relative viability (HCC-78; first compound 0.1265 µM): 0.661
relative viability (HCC-78; first compound 0.4 µM): 0.658
relative viability (HCC-78; first compound 4 µM): 0.619
relative viability (COR-L 105; first compound 0.04 µM): 0.503
relative viability (COR-L 105; first compound 0.1265 µM): 0.444
relative viability (COR-L 105; first compound 0.4 µM): 0.552
relative viability (COR-L 105; first compound 4 µM): 0.468
relative viability (NCI-H1944; first compound 0.04 µM): 0.191
relative viability (NCI-H1944; first compound 0.1265 µM): 0.214
relative viability (NCI-H1944; first compound 0.4 µM): 0.23
relative viability (NCI-H1944; first compound 4 µM): 0.215
relative viability (LCLC-97TM1; first compound 0.04 µM): 0.354
relative viability (LCLC-97TM1; first compound 0.1265 µM): 0.469
relative viability (LCLC-97TM1; first compound 0.4 µM): 0.433
relative viability (LCLC-97TM1; first compound 4 µM): 0.483
relative viability (UMC-11; first compound 0.04 µM): 0.363
relative viability (UMC-11; first compound 0.1265 µM): 0.33
relative viability (UMC-11; first compound 0.4 µM): 0.338
relative viability (UMC-11; first compound 4 µM): 0.288
relative viability (NCI-H1975; first compound 0.04 µM): 0.437
relative viability (NCI-H1975; first compound 0.1265 µM): 0.39
relative viability (NCI-H1975; first compound 0.4 µM): 0.393
relative viability (NCI-H1975; first compound 4 µM): 0.332
relative viability (A-427; first compound 0.04 µM): 0.298
relative viability (A-427; first compound 0.1265 µM): 0.35
relative viability (A-427; first compound 0.4 µM): 0.284
relative viability (A-427; first compound 4 µM): 0.285
relative viability (SK-LU-1; first compound 0.04 µM): 0.621
relative viability (SK-LU-1; first compound 0.1265 µM): 0.531
relative viability (SK-LU-1; first compound 0.4 µM): 0.516
relative viability (SK-LU-1; first compound 4 µM): 0.373
relative viability (EPLC-272H; first compound 0.04 µM): 0.278
relative viability (EPLC-272H; first compound 0.1265 µM): 0.274
relative viability (EPLC-272H; first compound 0.4 µM): 0.307
relative viability (EPLC-272H; first compound 4 µM): 0.271
relative viability (NCI-H1792; first compound 0.04 µM): 0.35
relative viability (NCI-H1792; first compound 0.4 µM): 0.303
relative viability (NCI-H1792; first compound 4 µM): 0.526
relative viability (NCI-H358; first compound 0.04 µM): 0.362
relative viability (NCI-H358; first compound 0.1265 µM): 0.28
relative viability (NCI-H358; first compound 0.4 µM): 0.371
relative viability (NCI-H358; first compound 4 µM): 0.28
relative viability (SW 900; first compound 0.04 µM): 0.466
relative viability (SW 900; first compound 0.1265 µM): 0.724
relative viability (SW 900; first compound 0.4 µM): 0.669
relative viability (SW 900; first compound 4 µM): 0.488
relative viability (NCI-H2085; first compound 0.04 µM): 0.763
relative viability (NCI-H2085; first compound 0.1265 µM): 0.732
relative viability (NCI-H2085; first compound 0.4 µM): 0.694
relative viability (NCI-H2085; first compound 4 µM): 0.595
relative viability (HOP-62; first compound 0.04 µM): 0.613
relative viability (HOP-62; first compound 0.1265 µM): 0.689
relative viability (HOP-62; first compound 0.4 µM): 0.715
relative viability (HOP-62; first compound 4 µM): 0.615
relative viability (LC-2-ad; first compound 0.04 µM): 0.695
relative viability (LC-2-ad; first compound 0.1265 µM): 0.593
relative viability (LC-2-ad; first compound 0.4 µM): 0.587
relative viability (LC-2-ad; first compound 4 µM): 0.662
relative viability (LU99A; first compound 0.04 µM): 0.742
relative viability (LU99A; first compound 0.1265 µM): 0.985
relative viability (LU99A; first compound 0.4 µM): 1.02
relative viability (LU99A; first compound 4 µM): 0.916
relative viability (LXF-289; first compound 0.04 µM): 0.482
relative viability (LXF-289; first compound 0.1265 µM): 0.517
relative viability (LXF-289; first compound 0.4 µM): 0.549
relative viability (LXF-289; first compound 4 µM): 0.517
relative viability (NCI-H2342; first compound 0.04 µM): 0.625
relative viability (NCI-H2342; first compound 0.1265 µM): 0.568
relative viability (NCI-H2342; first compound 0.4 µM): 0.525
relative viability (NCI-H2342; first compound 4 µM): 0.519
relative viability (NCI-H1755; first compound 0.04 µM): 0.611
relative viability (NCI-H1755; first compound 0.1265 µM): 0.603
relative viability (NCI-H1755; first compound 0.4 µM): 0.698
relative viability (NCI-H1755; first compound 4 µM): 0.586
relative viability (NCI-H1915; first compound 0.04 µM): 0.379
relative viability (NCI-H1915; first compound 0.1265 µM): 0.388
relative viability (NCI-H1915; first compound 0.4 µM): 0.382
relative viability (NCI-H1915; first compound 4 µM): 0.362
relative viability (NCI-H1793; first compound 0.04 µM): 0.347
relative viability (NCI-H1793; first compound 0.1265 µM): 0.339
relative viability (NCI-H1793; first compound 0.4 µM): 0.272
relative viability (NCI-H1793; first compound 4 µM): 0.273
